Columns and labels:
[1] = tested on: enteric pathogens (Salmonella spp., Shigella spp., K. pneumoniae, and E. coli); test: Checkerboard synergy assay (FIC), Gram-negative MDR clinical isolates; assay type: cell-based; details: Tebipenem/LpxC inhibitor combination, all tested enteric pathogens
Description: (§1) Before initiating drug combination assays, the MIC values for both compounds were determined against Shigella (Sf2457T), Salmonella (St14028), and E. coli (EcDH5a) isolates. […] 20 μM moxifloxacin was used as negative control (100% bacterial growth inhibition) in one column and DMSO as positive control (100% bacterial growth). A total of 25 µl of 1 × 10^6 CFU/mL bacterial culture was added to each well of a 384-well plate (μClear; Greiner Bio‐One). Plates were incubated overnight at 37 °C. Next, 10 µl of resazurin were added and plates were incubated at room temperature for 3 hr. Bacterial growth inhibition was measured by fluorescence in a Envision plate reader (PerkinElmer). All assays were performed in duplicate. Combination studies with clinical isolates were performed in 96-well plates (Greiner) adding 200 μl of 1 × 10^6 CFU/mL bacterial culture and following the same checkboard titration method as described above. The range of final working concentrations of each antimicrobial was adjusted based on the MIC of each selected organism.
(§2) MICs were determined for drug A and drug B alone and in combination. […]

Campylobacter jejuni = test: MIC by micro dilution, clinical Campylobacter isolates from Vietnam; assay type: cell-based; details: 75 Campylobacter jejuni from diarrhoeal cases in Vietnam; read-out: median MIC
Excerpt: (§3) Selected compounds, including Tebipenem, were profiled against a panel of […] clinical isolates of enteric pathogens comprised of Shigella (Vietnam and Kenya; n = 135), non-typhoidal Salmonella (Vietnam; n = 117), Campylobacter (Vietnam; n = 75), and various pathogenic E. coli species (Vietnam; n = 7) ([Butcher et al., 2014]). The antimicrobial susceptibility profile of these organisms is described in Supplementary file 1.
(§4) Compound screening and dose response assays have been described previously ([Van Voorhis et al., 2016]; [Wiegand et al., 2008]). Briefly, the selected bacteria were cultured on the Luria-Bertani agar overnight at 37 °C (Campylobacter isolates were grown in 2.5% Laked Horse Blood cation-adjusted Mueller Hinton medium (CAMHB, Sigma Aldrich) and incubated in microaerophilic conditions (10% CO2, 5% O2 and 85% N2) at 42 °C); colonies were added to sterile PBS to form 0.5 McFarland solutions. […] The activity of the chemical was recorded as being active (yes) or non-active (no) for each of the tested chemicals. A non-active result was recorded when there was no evidence of bacterial inhibition, and the culture area was indistinguishable from the negative control.
(§5) MICs were evaluated using the micro dilution assay in Müller Hinton broth using 1 mM chemical stock solutions, and a final concentration of 5 × 10^5 CFU/mL bacteria. […]

[2] = mice, Tebipenem PO 39 mg/kg, n = 3
[3] = Intestinal distribution by MALDI imaging in mice; assay type: in vivo; details: 60 min after oral pro-drug
Description: One animal was euthanised at 0.25, 0.5, 1, and 4 hr respectively and 2.5–3 cm sections of the intestine (duodenum, jejunum, ileum, caecum, and colon) were collected and frozen at –80 °C. For quantitative LCMS analysis of intestine homogenate, samples were thawed at ambient temperature, mixed with water (1:1) and homogenised by turrax (10 sec). Subsequently, 20 µL of homogenate were mixed with 200 µl of ACN: MeOH (80:20) and filtered using 0.2 µm filter plate (Whatman). LCMS analysis was performed as described in previous section. For MALDI imaging, 50 mm of the central part of each intestinal section were cut and mounted in a sample disc on dry ice with a solution of 1% methylcellulose (Sigma Aldrich, UK). Next, tissue sections of 12 µm (sagital sections) were obtained using a cryostat (Leica CM3600; Leica Microsystems Inc, Wetzlar, Germany) at –20 °C and collected in conductive-coated slides for MALDI Imaging (Bruker Daltonic). After the ‘MALDI’ section was obtained a consecutive section for histology was taken. Prior to matrix coating, samples for MALDI were optical scanned in a PathScanner. The matrix deposition was conducted in a sprayer ImagePrep System (Bruker Daltonic) which uses vibrational vaporisation technology. As matrix solution α-CHCA (α-Cyano-4-hydroxycinnamic acid (Sigma Aldrich) dissolved in 70:30 methanol/water (v/v) containing 0.2% TFA at 7 mg/mL was used. MALDI MSI data were obtained using a Bruker UltrafleXtream MALDI TOF/TOF (Bruker Daltonic, Germany)).
Both compounds were analysed in positive mode using a LIFT method. For Tebipenem, parent compound was 384.32 and the detection mass window between m/z 0–400. 298.164 were the most intensive fragment. […] We used a laser shut at 85% power with a 50 μm step size, 100 times at raster spot in random wak mode. FlexImaging 4.1(bruker Daltoninc, Germany) were used for the data visualisation. […]
MALDI Imaging is not a quantitative technique, therefore, the colour scale of images is relative to the maximum intensity (100 corresponds with the maximal signa in each slide). […]

Salmonella = test: MIC by micro dilution, clinical Salmonella isolates from Vietnam; assay type: cell-based; details: 117 Salmonella from diarrhoeal cases in Vietnam; read-out: median MIC
Excerpt: as §3, §4, §5

[4] = tested on: invasive and non-invasive Salmonella isolates; test: Checkerboard synergy assay (FIC), clinical Salmonella isolates; assay type: cell-based; details: in combination with azithromycin
Description: as §1, §2

Salmonella (St14028) = test: Checkerboard synergy assay (FIC), laboratory isolate; assay type: cell-based, S. Typhimurium
Description: as §1
MICs were determined for drug A and drug B alone and in combination. […] The sum of FIC was expressed using the following equation: FIC = (MIC of drug A in combination / MIC of drug A alone) + (MIC of drug B in combination / MIC of drug B alone) ([Le Minh et al., 2015]; [Petersen et al., 2006]; [Hall et al., 1983]; [European Committee for Antimicrobial Susceptibility Testing (EUCAST) of the European Society of Clinical Microbiology and Infectious Dieases (ESCMID), 2000]).

[5] = in combination with LpxC inhibitor PF-5081090

C[C@@H](O)[C@H]1C(=O)N2C(C(=O)O)=C(SC3CN(C4=NCCS4)C3)[C@H](C)[C@H]12 [Tebipenem]
interaction (FIC index) [1]: indifference or partial synergy | MIC (Campylobacter jejuni): < 0.1 µM | bioavailability [2]: 4 ± 1% | MALDI detection in the intestinal lumen [3]: could be detected in the lumen and enterocytes throughout the gut | MIC (Salmonella): < 0.1 µM | FIC scores [4]: ~ 0.5 | interaction (FIC index) (Salmonella (St14028); [5]): partial synergy | reduction of the MIC against Tebipenem (Salmonella (St14028); [5]): > 10 fold | interaction (FIC index) (Salmonella (St14028); in combination with azithromycin): partial synergy | interaction (FIC index) (Salmonella (St14028); in combination with ceftriaxone): indifference or partial synergy | interaction (FIC index) (Salmonella (St14028); in combination with ciprofloxacin): indifference or partial synergy | interaction (FIC index) (Salmonella (St14028); in combination with mecillinam): indifference or partial synergy

From paper PMC8959600 (eLife, 2022)
